Where two headings read alike, the source gives them in different places.
What was measured:
[1] = molecular target: T1, BTK enzyme (full-length BTK, hBTK) (Homo sapiens, UniProt Q06187); assay: Btk enzyme activity assay (LANCE TR-FRET); type: biochemical; settings: 50 pM hBTK, 25 μM ATP, 60 minute compound and enzyme incubation, read-out: BTK binding IC50
T1 construct: recombinant protein from baculovirus-transfected Sf9 cells: full-length BTK, 6HIS-tag cleaved; 6HIS (cleaved yes); made in house; host or cells: baculovirus-transfected Sf9 cells
Procedure: BTK enzymatic activity was determined with the LANCE (Lanthanide Chelate Excite) TR-FRET (Time-resolved fluorescence resonance energy transfer) assay. […] To each well of a black non-binding surface Corning 384-well microplate (Corning Catalog #3820), 5 nL of compound (2000 fold dilution in final assay volume of 10 μL) was dispensed, followed by the addition of 7.5 μL of 1× kinase buffer (50 mM Hepes 7.5, 10 mM MgCl2, 0.01% Brij-35, 1 mM EGTA, 0.05% BSA & 1 mM DTT) containing 5.09 pg/μL (66.67 pM) of BTK enzyme (recombinant protein from baculovirus-transfected Sf9 cells: full-length BTK, 6HIS-tag cleaved). Following a 60 minute compound and enzyme incubation, each reaction was initiated by the addition of 2.5 μL 1× kinase buffer containing 8 μM biotinylated “A5” peptide (Biotin-[…]-NH2) (SEQ.ID.NO.: 1), and 100 μM ATP. The final reaction in each well of 10 μL consists of 50 pM hBTK, 2 μM biotin-A5-peptide, and 25 μM ATP. Phosphorylation reactions were allowed to proceed for 120 minutes. Reactions were immediately quenched by the addition of 20 uL of 1× quench buffer (15 mM EDTA, 25 mM Hepes 7.3, and 0.1% Triton X-100) containing detection reagents (0.626 nM of LANCE-Eu-W1024-anti-phosphoTyrosine antibody, PerkinElmer and 86.8 nM of Streptavidin-conjugated Dylight 650, Dyomics/ThermoFisher Scientific). After 60 minutes incubation with detection reagents, reaction plates were read on a PerkinElmer EnVision plate reader using standard TR-FRET protocol. Briefly, excitation of donor molecules (Eu-chelate:anti-phospho-antibody) with a laser light source at 337 nm produces energy that can be transferred to Dylight-650 acceptor molecules if this donor:acceptor pair is within close proximity. Fluorescence intensity at both 665 nm (acceptor) and 615 nm (donor) are measured and a TR-FRET ratio calculated for each well (acceptor intensity/donor intensity). IC50 values were determined by 4 parameter robust fit of TR-FRET ratio values vs. (Log10) compound concentrations.
The following Table 2 provides specific IC50 values for all the examples. The IC50 values set forth below were determined according to Assay method described above.

[2] = test system: adenosine uptake into HeLa cells; assay: [3H]Adenosine uptake assay in HeLa cells; type: cell-based; settings: 60 minutes uptake, read-out: ADU inhibition IC50 (adenosine uptake inhibition potency)
Procedure: Compounds were also screened in an adenosine uptake functional cellular assay using the protocol described below.
Adenosine uptake activity was determined by monitoring the accumulation of tritiated adenosine into HeLa cells (ATCC catalog # CCL-2) using a PMT-based radiometric detection instrument. In this assay, the potency (IC50) of each compound was determined from a ten point (1:3 serial dilution; final compound concentration range in assay from 10 μM to 0.032 nM) titration curve using the following outlined procedure. To each well of a 96-well CytoStar-T scintillating microplate (Perkin Elmer Catalog # RPNQ0163), 25 000 HeLa cells in 100 μL of growth medium comprising: Minimum Essential Media (Life Technologies Catalog # 11095-080)+10% (v/v) foetal bovine serum (FBS; Sigma Aldrich Catalog # F2442) was added. These cells were incubated overnight at 37° C. in a humidified atmosphere with 5% (v/v) CO2. After this time the growth medium was removed and replaced with 40 μL assay medium comprising: Hanks balanced salts solution (HBSS; Thermo Fisher Catalog # SH30268.01)+5% (v/v) FBS. Compound stock solutions in DMSO were diluted in assay medium to 2.5× final compound concentration maintaining a constant DMSO concentration of 0.25% (v/v). 40 μL of compound in assay medium was dispensed into individual wells of the Cytostar-T plates and the plates were incubated for 30 minutes under ambient laboratory conditions. Following this incubation, 20 μL of 500 nM [^3H]adenosine (American Radiolabeled Chemicals Inc. Catalog # ART0287) in assay medium was added and incubated for a further 60 minutes under ambient laboratory conditions. The amount of radiolabel accumulation was then determined using a Perkin Elmer Topcount NXT microplate reader. In brief, HeLa cells adhere to the bottom of the Cytostar-T plate, uptake of [^3H]adenosine into these cells brings the radiolabel into sufficient proximity to excite the scintillant in the base of the plates. These events are captured by single PMT, time-resolved coincidence counting. IC50 values were determined by 4 parameter robust fit of counts per second values vs. (Log10) compound concentrations.

T1 sequence (Q06187 whole entry): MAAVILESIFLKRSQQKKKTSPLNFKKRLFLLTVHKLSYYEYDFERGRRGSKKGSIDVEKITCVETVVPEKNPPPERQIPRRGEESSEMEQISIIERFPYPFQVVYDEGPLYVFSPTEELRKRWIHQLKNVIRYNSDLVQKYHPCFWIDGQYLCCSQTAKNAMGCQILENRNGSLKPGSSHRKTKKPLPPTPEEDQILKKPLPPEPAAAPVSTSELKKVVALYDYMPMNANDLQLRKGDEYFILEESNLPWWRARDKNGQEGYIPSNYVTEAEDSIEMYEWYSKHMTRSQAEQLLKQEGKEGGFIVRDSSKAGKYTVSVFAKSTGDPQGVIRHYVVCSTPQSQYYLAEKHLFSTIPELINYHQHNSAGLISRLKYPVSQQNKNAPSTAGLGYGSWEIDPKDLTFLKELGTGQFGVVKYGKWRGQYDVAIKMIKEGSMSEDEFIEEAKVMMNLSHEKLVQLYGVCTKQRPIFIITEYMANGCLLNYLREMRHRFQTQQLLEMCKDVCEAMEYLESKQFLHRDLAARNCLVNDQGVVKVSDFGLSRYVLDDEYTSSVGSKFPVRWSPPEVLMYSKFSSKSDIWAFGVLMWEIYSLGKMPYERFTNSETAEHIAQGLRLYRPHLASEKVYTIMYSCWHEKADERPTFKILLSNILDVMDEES

Structure (SMILES)	IC50 [1]	IC50 ([2]; Homo sapiens, HeLa)	IC50 [2]
CCOc1cc(C(=O)Nc2cc(C(F)(F)F)ccn2)ccc1-c1nc([C@H]2CC[C@H]3N(C2)C(=O)CC32CC2)n2ccnc(N)c12 [Compound 19, 4-{8-amino-3-[(6′S,8a′R)-3′-oxohexahydro-5′H-spiro[cyclopropane-1,1′-indolizin]-6′-yl]imidazo[1,5-a]pyrazin-1-yl}-3-ethoxy-N-[4-(trifluoromethyl)pyridin-2-yl]benzamide]	0.00381 µM	0.613 µM	–
CCOc1cc(C(=O)Nc2cc(C(F)(F)F)n(C)n2)cc(F)c1-c1nc(C2CCC3N(C2)C(=O)CC32CC2)n2c(F)cnc(N)c12 (stereo not shown) [Compound 23, 4-[8-amino-5-fluoro-3-(3′-oxohexahydro-5′H-spiro[cyclopropane-1,1′-indolizin]-6′-yl)imidazo[1,5-a]pyrazin-1-yl]-3-ethoxy-5-fluoro-N-[1-methyl-5-(trifluoromethyl)-1H-pyrazol-3-yl]benzamide]	0.0059 µM	–	2.09 µM
COc1cc(C(=O)Nc2cc(C(F)(F)F)ccn2)cc(F)c1-c1nc([C@@H]2CC[C@@H]3N(C2)C(=O)C2(CC2)C3(F)F)n2ccnc(N)c12 [Compound 30, 4-{8-amino-3-[(6′R,8a′S)-1′,1′-difluoro-3′-oxohexahydrospiro[cyclopropane-1,2′-indolizin]-6′-yl]imidazo[1,5-a]pyrazin-1-yl}-3-fluoro-5-methoxy-N-[4-(trifluoromethyl)pyridin-2-yl]benzamide]	0.00161 µM	1.07 µM	–
CCOc1cc(C(=O)Nc2cc(C(F)(F)F)n(C)n2)ccc1-c1nc([C@@H]2CC[C@@H]3N(C2)C(=O)C2(CC2)C3(F)F)n2ccnc(N)c12 [Compound 32, 4-{8-amino-3-[(6′R,8a′S)-1′,1′-difluoro-3′-oxohexahydrospiro[cyclopropane-1,2′-indolizin]-6′-yl]imidazo[1,5-a]pyrazin-1-yl}-3-ethoxy-N-[1-methyl-5-(trifluoromethyl)-1H-pyrazol-3-yl]benzamide]	0.00622 µM	2.95 µM	–
CCOc1cc(C(=O)Nc2cc(C(F)(F)F)n(C)n2)c(F)cc1-c1nc([C@@H]2CC[C@@H]3N(C2)C(=O)C2(CC2)C3(F)F)n2ccnc(N)c12 [Compound 33, 4-{8-amino-3-[(6′R,8a′S)-1′,1′-difluoro-3′-oxohexahydrospiro[cyclopropane-1,2′-indolizin]-6′-yl]imidazo[1,5-a]pyrazin-1-yl}-5-ethoxy-2-fluoro-N-[1-methyl-5-(trifluoromethyl)-1H-pyrazol-3-yl]benzamide]	0.00904 µM	1.44 µM	–
CCOc1cc(C(=O)Nc2cc(C(F)(F)F)n(C)n2)c(Cl)cc1-c1nc([C@@H]2CC[C@@H]3N(C2)C(=O)C2(CC2)C3(F)F)n2ccnc(N)c12 [Compound 34, 4-{8-amino-3-[(6′R,8a′S)-1′,1′-difluoro-3′-oxohexahydrospiro[cyclopropane-1,2′-indolizin]-6′-yl]imidazo[1,5-a]pyrazin-1-yl}-2-chloro-5-ethoxy-N-[1-methyl-5-(trifluoromethyl)-1H-pyrazol-3-yl]benzamide]	0.00695 µM	1.58 µM	–

Further lines, results first:

IC50 [1]	IC50 ([2]; Homo sapiens, HeLa)	IC50 [2]	Structure (SMILES)
0.000127 µM	1.11 µM	–	CCOc1cc(C(=O)Nc2cc(C(F)(F)F)ccn2)ccc1-c1nc([C@@H]2CC[C@@H]3N(C2)C(=O)CC32CC2)n2ccnc(N)c12 [Compound 18, 4-{8-amino-3-[(6′R,8a′S)-3′-oxohexahydro-5′H-spiro[cyclopropane-1,1′-indolizin]-6′-yl]imidazo[1,5-a]pyrazin-1-yl}-3-ethoxy-N-[4-(trifluoromethyl)pyridin-2-yl]benzamide]
0.000171 µM	0.871 µM	–	CCOc1cc(C(=O)Nc2cc(C(F)(F)F)ccn2)cc(F)c1-c1nc([C@@H]2CC[C@@H]3N(C2)C(=O)CC32CC2)n2ccnc(N)c12 [Compound 20, 4-{8-amino-3-[(6′R,8a′S)-3′-oxohexahydro-5′H-spiro[cyclopropane-1,1′-indolizin]-6′-yl]imidazo[1,5-a]pyrazin-1-yl}-3-ethoxy-5-fluoro-N-[4-(trifluoromethyl)pyridin-2-yl]benzamide]
0.00016 µM	1.06 µM	–	CCOc1cc(C(=O)Nc2cc(C3CC3)ccn2)cc(F)c1-c1nc([C@@H]2CC[C@@H]3N(C2)C(=O)CC32CC2)n2ccnc(N)c12 [Compound 21, 4-{8-amino-3-[(6′R,8a′S)-3′-oxohexahydro-5′H-spiro[cyclopropane-1,1′-indolizin]-6′-yl]imidazo[1,5-a]pyrazin-1-yl}-N-(4-cyclopropylpyridin-2-yl)-3-ethoxy-5-fluorobenzamide]
0.000269 µM	1.43 µM	–	CCOc1cc(C(=O)Nc2cc(C(F)(F)F)n(C)n2)cc(F)c1-c1nc(C2CCC3N(C2)C(=O)CC32CC2)n2c(F)cnc(N)c12 (stereo not shown) [Compound 22, 4-[8-amino-5-fluoro-3-(3′-oxohexahydro-5′H-spiro[cyclopropane-1,1′-indolizin]-6′-yl)imidazo[1,5-a]pyrazin-1-yl]-3-ethoxy-5-fluoro-N-[1-methyl-5-(trifluoromethyl)-1H-pyrazol-3-yl]benzamide]
0.0016 µM	1.14 µM	–	CCOc1cc(C(=O)Nc2cc(C(F)(F)F)ccn2)ccc1-c1nc([C@@H]2CC[C@@H]3N(C2)C(=O)C2(CC2)C3(F)F)n2ccnc(N)c12 [Compound 27, 4-{8-amino-3-[(6′R,8a′S)-1′,1′-difluoro-3′-oxohexahydrospiro[cyclopropane-1,2′-indolizin]-6′-yl]imidazo[1,5-a]pyrazin-1-yl}-3-ethoxy-N-[4-(trifluoromethyl)pyridin-2-yl]benzamide]
0.00154 µM	1.95 µM	–	CCOc1cc(C(=O)Nc2cc(C(F)(F)F)ccn2)cc(F)c1-c1nc([C@@H]2CC[C@@H]3N(C2)C(=O)C2(CC2)C3(F)F)n2ccnc(N)c12 [Compound 28, 4-{8-amino-3-[(6′R,8a′S)-1′,1′-difluoro-3′-oxohexahydrospiro[cyclopropane-1,2′-indolizin]-6′-yl]imidazo[1,5-a]pyrazin-1-yl}-3-ethoxy-5-fluoro-N-[4-(trifluoromethyl)pyridin-2-yl]benzamide]
0.00151 µM	0.672 µM	–	COc1cc(C(=O)Nc2cc(C(F)(F)F)ccn2)ccc1-c1nc([C@H]2CC[C@H]3N(C2)C(=O)C2(CC2)C3(F)F)n2ccnc(N)c12 [Compound 29, 4-{8-amino-3-[(6′S,8a′R)-1′,1′-difluoro-3′-oxohexahydrospiro[cyclopropane-1,2′-indolizin]-6′-yl]imidazo[1,5-a]pyrazin-1-yl}-3-methoxy-N-[4-(trifluoromethyl)pyridin-2-yl]benzamide]
0.00041 µM	0.144 µM	–	Nc1nccn2c([C@H]3CC[C@H]4N(C3)C(=O)C3(CC3)C4(F)F)nc(-c3ccc(C(=O)Nc4cc(C(F)(F)F)ccn4)cc3)c12 [Compound 31, 4-{8-amino-3-[(6′S,8a′R)-1′,1′-difluoro-3′-oxohexahydrospiro[cyclopropane-1,2′-indolizin]-6′-yl]imidazo[1,5-a]pyrazin-1-yl}-N-[4-(trifluoromethyl)pyridin-2-yl]benzamide]
